Test results: ChEMBL document CHEMBL6134913, “Novel Emopamil-Binding Protein Inhibitors for Treating Multiple Sclerosis” (ACS Med Chem Lett, 2025)

These molecules were tested against 3-beta-hydroxysteroid-Delta(8),Delta(7)-isomerase (Homo sapiens, UniProt Q15125) (assay: Displacement of [3H]ifenprodil from FLAG-tagged EBP (unknown origin) overexpressing human Expi293F cells measured after 20 mins by Microbeta microplate counter).
Format: cell-based

Sequence of 3-beta-hydroxysteroid-Delta(8),Delta(7)-isomerase (Q15125 whole entry): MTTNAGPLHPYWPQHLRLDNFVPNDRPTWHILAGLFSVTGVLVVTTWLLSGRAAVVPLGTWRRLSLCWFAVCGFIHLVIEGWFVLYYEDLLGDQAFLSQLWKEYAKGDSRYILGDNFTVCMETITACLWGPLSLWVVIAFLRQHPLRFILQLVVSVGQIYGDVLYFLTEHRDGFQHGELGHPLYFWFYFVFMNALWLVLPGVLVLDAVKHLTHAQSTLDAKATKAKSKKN

IC50, < 15 nM:
Cc1cc(C(F)(F)F)nc(C)c1S(=O)(=O)N1CC2(CN(Cc3ccn(C)n3)C2)C1, CCc1cnccc1CN1CC2(C1)CN(S(=O)(=O)c1ccc(C(F)(F)F)nc1C)C2, Cn1nc(C2CCC2)cc1S(=O)(=O)N1CC2(CN(C3CCOCC3)C2)C1, Cc1nc(C(F)(F)C(F)(F)F)ccc1S(=O)(=O)N1CC2(CN(C3CCOCC3)C2)C1, Cn1nc(-c2ccccc2)cc1S(=O)(=O)N1CC2(CN(C3CCOCC3)C2)C1, Cn1nc(C2CCCCC2)cc1S(=O)(=O)N1CC2(CN(C3CCOCC3)C2)C1
